Assays:
in vitro = settings: human
physchem = settings: buffer, pH 7.4
in vivo = settings: rat, iv
[1] = Oral bioavailability in rat; type: ADME, organism-based; settings: in vivo
[2] = Oral bioavailability in dog; type: ADME, organism-based, Canis lupus familiaris; settings: in vivo
[3] = Half life in iv dosed dog; type: ADME, organism-based, Canis lupus familiaris; settings: in vivo
Hepatocyte = assay: Intrinsic clearance in rat hepatocytes measured per 10^6 cells; type: ADME, cell-based

microsomal CLint (in vitro; liver microsomes) | logD (physchem) | other results | Structure (SMILES)
< 5 µL/min/mg | 2.3 |  | N#Cc1cccc(C[C@@H](C(=O)O)N2CCC(CN3CCC(Oc4ccc(Cl)c(Cl)c4)CC3)CC2)c1
 | 2 |  | O=C(O)COc1cccc(N2CCC(CN3CCC(Oc4ccc(Cl)c(Cl)c4)CC3)CC2)c1
 | 3 |  | Cc1c(OC2CCN(CC3CCN([C@@](C)(Cc4ccc(F)cc4)C(=O)O)CC3)CC2)ccc(Cl)c1Cl
8 µL/min/mg | 2.8 |  | COc1ccccc1C[C@@H](C(=O)O)N1CCC(CN2CCC(Oc3ccc(Cl)c(Cl)c3)CC2)CC1
 | 2.3 |  | O=C(O)c1ccc(N2CCC(CN3CCC(Oc4ccc(Cl)c(Cl)c4)CC3)CC2)cc1
 | 1.6 |  | O=C(O)Cc1cccc(N2CCC(CN3CCC(Oc4ccc(Cl)c(Cl)c4)CC3)CC2)c1
 |  | CLint scaled (in vitro; liver microsomes): 6 mL/min/kg; half-life (in vivo): 2.4 h; bioavailability [1]: 13% | O=C(O)C(c1ccccc1)N1CCC(N2CCC(Oc3ccc(Cl)c(Cl)c3)CC2)CC1 (racemic)
< 5 µL/min/mg |  |  | O=C(O)[C@H](Cc1ccccc1Cl)N1CCC(CN2CCC(Oc3ccc(Cl)c(Cl)c3)CC2)CC1
< 6 µL/min/mg | 2.8 |  | Cc1cccc(C[C@@H](C(=O)O)N2CCC(CN3CCC(Oc4ccc(Cl)c(Cl)c4)CC3)CC2)c1
 | 2 |  | O=C(O)COc1ccccc1N1CCC(CN2CCC(Oc3ccc(Cl)c(Cl)c3)CC2)CC1
 | 2 | bioavailability [1]: 24% | Cc1cc(F)ccc1OC1CCN(CC2CCN([C@@](C)(Cc3ccc(F)cc3)C(=O)O)CC2)CC1
 | 1.8 |  | O=C(O)Cc1ccc(N2CCC(CN3CCC(Oc4ccc(Cl)c(Cl)c4)CC3)CC2)cc1
 | 1.9 |  | O=C(O)[C@H](Cc1ccc(F)cc1)N1CCC(CN2CCC(Oc3ccc(Cl)cc3)CC2)CC1
 | 2.2 |  | O=C(O)c1cccc(N2CCC(CN3CCC(Oc4ccc(Cl)c(Cl)c4)CC3)CC2)c1
 | 2.1 | bioavailability [1]: 84% | Cc1cc(OC2CCN(CC3CCN([C@@](C)(Cc4ccc(F)cc4)C(=O)O)CC3)CC2)ccc1Cl
< 3 µL/min/mg | 2.5 | half-life (in vivo): 12 h; bioavailability [1]: 62% | O=C(O)[C@H](Cc1ccccc1)N1CCC(CN2CCC(Oc3ccc(Cl)c(Cl)c3)CC2)CC1
< 3 µL/min/mg | 2.9 |  | O=C(O)[C@H](Cc1ccc(Cl)cc1)N1CCC(CN2CCC(Oc3ccc(Cl)c(Cl)c3)CC2)CC1
< 3 µL/min/mg | 3.2 | half-life (in vivo): 0.8 h | Cc1c(Cl)ccc(OC2CCN(CC3CCN([C@@H](Cc4ccc(F)cc4)C(=O)O)CC3)CC2)c1Cl
 |  | CLint scaled (in vitro; microsomes): < 3 mL/min/kg; half-life (in vivo): 4.8 h; bioavailability [1]: 5% | O=C(O)[C@@H](c1ccccc1)N1CCC(CN2CCC(Oc3ccc(Cl)c(Cl)c3)CC2)CC1
 | 2.8 | half-life (in vivo): 4.1 h; bioavailability [1]: 58% | O=C(O)c1ccccc1N1CCC(CN2CCC(Oc3ccc(Cl)c(Cl)c3)CC2)CC1
 | 1.1 |  | O=C(O)c1ccc(CN2CCC(CN3CCC(Oc4ccc(Cl)c(Cl)c4)CC3)CC2)cc1

microsomal CLint (in vitro; liver microsomes) | logD (physchem) | other results | Structure (SMILES)
14 µL/min/mg | 3 |  | Cc1ccc(C[C@@H](C(=O)O)N2CCC(CN3CCC(Oc4ccc(Cl)c(Cl)c4)CC3)CC2)cc1
 | 2.6 |  | O=C(O)[C@H](Cc1ccccc1F)N1CCC(CN2CCC(Oc3ccc(Cl)c(Cl)c3)CC2)CC1
 |  | CLint scaled (in vitro; microsomes): < 3 mL/min/kg | O=C(O)[C@H](c1ccccc1)N1CCC(CN2CCC(Oc3ccc(Cl)c(Cl)c3)CC2)CC1
 |  | CLint scaled (in vitro; liver microsomes): < 3 mL/min/kg | O=C(O)C(c1ccccc1)N1CCCC(CN2CCC(Oc3ccc(Cl)c(Cl)c3)CC2)C1 (mixture of isomers)
4 µL/min/mg | 2.6 |  | O=C(O)[C@H](Cc1ccc(F)cc1)N1CCC(CN2CCC(Oc3ccc(Cl)c(Cl)c3)CC2)CC1
 |  | bioavailability [1]: 36% | O=C(O)C(c1ccccc1)N1CCO[C@H](CN2CCC(Oc3ccc(Cl)c(Cl)c3)CC2)C1 (mixture of isomers)
< 3 µL/min/mg | 2.5 |  | O=C(O)[C@@H](Cc1ccccc1)N1CCC(CN2CCC(Oc3ccc(Cl)c(Cl)c3)CC2)CC1
< 3 µL/min/mg | 2.5 |  | Cc1ccccc1C[C@@H](C(=O)O)N1CCC(CN2CCC(Oc3ccc(Cl)c(Cl)c3)CC2)CC1
7 µL/min/mg |  |  | O=C(O)[C@H](Cc1cccc(C(F)(F)F)c1)N1CCC(CN2CCC(Oc3ccc(Cl)c(Cl)c3)CC2)CC1
 | 1.7 |  | O=C(O)c1cccnc1N1CCC(CN2CCC(Oc3ccc(Cl)c(Cl)c3)CC2)CC1
 | 2.2 |  | N#Cc1ccc(C[C@@H](C(=O)O)N2CCC(CN3CCC(Oc4ccc(Cl)c(Cl)c4)CC3)CC2)cc1
 | 2.6 | bioavailability [2]: 83%; half-life (in vivo): 8.7 h; bioavailability [1]: 52%; half-life [3]: 12 h | Cc1cc(Cl)ccc1OC1CCN(CC2CCN([C@@](C)(Cc3ccc(F)cc3)C(=O)O)CC2)CC1
 |  | CLint scaled (in vitro; liver microsomes): 1 mL/min/kg; half-life (in vivo): 2.7 h; bioavailability [1]: 30% | Cc1ccc(S(=O)(=O)NC(=O)N2CCC(N3CCC(Oc4ccc(Cl)c(Cl)c4)CC3)CC2)cc1
< 3 µL/min/mg |  |  | Cc1cc(F)ccc1OC1CCN(CC2CCN([C@@H](Cc3ccc(F)cc3)C(=O)O)CC2)CC1
 | 2.2 | microsomal CLint (in vitro; microsomes): 6 µL/min/mg | Cc1c(OC2CCN(CC3CCN([C@@H](Cc4ccc(F)cc4)C(=O)O)CC3)CC2)ccc(C#N)c1Cl
 | 2.5 |  | Cc1cc(Cl)ccc1OC1CCN(CC2CCN([C@@H](Cc3ccc(F)cc3)C(=O)O)CC2)CC1
 | 2.1 | microsomal CLint (in vitro; microsomes): 6 µL/min/mg | N#Cc1ccccc1C[C@@H](C(=O)O)N1CCC(CN2CCC(Oc3ccc(Cl)c(Cl)c3)CC2)CC1
 |  | CLint scaled (in vitro; microsomes): < 3 mL/min/kg | O=C(O)C(c1ccccc1)N1CCC(CN2CCC(Oc3ccc(Cl)c(Cl)c3)CC2)CC1 (racemic)
< 3 µL/min/mg | 3.5 | half-life (in vivo): 10 h; CLH (Hepatocyte): < 3 µL/min/1e6 cells | Cc1c(OC2CCN(CC3CCN([C@@H](Cc4ccc(F)cc4)C(=O)O)CC3)CC2)ccc(Cl)c1Cl
 | 2.7 |  | O=C(O)[C@H](Cc1cccc(F)c1)N1CCC(CN2CCC(Oc3ccc(Cl)c(Cl)c3)CC2)CC1

From ChEMBL document CHEMBL2157884, “Scaffold-hopping with zwitterionic CCR3 antagonists: identification and optimisation of a series with good potency and pharmacokinetics leading to the discovery of AZ12436092” (Bioorg Med Chem Lett, 2012)
